From US11912701B2, “Protein kinase inhibitors for promoting liver regeneration or reducing or preventing hepatocyte death” (HEPAREGENIX GMBH, priority 2018, dated 2024) come the findings set out here.

Format in all cases: biochemical
One assay addresses T1, MKK4 (Homo sapiens, UniProt P45985).
T1 construct: purchased ProQinase GmbH, Freiburg, Germany (33PanQinase Assay Service)
T1 sequence (P45985 1-399): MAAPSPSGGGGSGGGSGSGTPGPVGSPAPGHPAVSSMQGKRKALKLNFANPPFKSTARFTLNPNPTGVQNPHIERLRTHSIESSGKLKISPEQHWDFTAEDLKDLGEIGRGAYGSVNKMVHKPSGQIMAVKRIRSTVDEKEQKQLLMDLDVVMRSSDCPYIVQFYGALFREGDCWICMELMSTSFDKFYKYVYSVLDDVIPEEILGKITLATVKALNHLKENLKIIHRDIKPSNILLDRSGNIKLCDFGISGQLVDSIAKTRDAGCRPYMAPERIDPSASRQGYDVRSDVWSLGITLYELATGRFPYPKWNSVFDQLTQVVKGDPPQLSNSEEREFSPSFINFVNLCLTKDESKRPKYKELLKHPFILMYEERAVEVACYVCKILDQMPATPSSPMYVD
The assay can be described thus: 33PanQinase enzyme assay, MKK4. Particulars: assay 'IC50'; read-out: Potency MKK4 (IC50). In a few lines:
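Radiometric 33PanQinase assay: kinase, substrate, ATP and compound in standard buffer, 60 min at 30 °C; 33Pi incorporation read by scintillation counting.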

Another assay concerns the target T2, BRaf (Homo sapiens, UniProt P15056).
T2 construct: purchased ProQinase GmbH, Freiburg, Germany (33PanQinase Assay Service)
In words: 33PanQinase enzyme assay, BRaf. As to conditions: ratio IC50(BRaf)/IC50(MKK4). In a few lines:
(§1)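 Radiometric 33PanQinase format: kinase with substrate, ATP and compound (added in 10% DMSO stock) incubated 60 min at 30° C, stopped with 2% H3PO4, ^33Pi incorporation counted by scintillation. Single-concentration data given as % residual activity; IC50 by least-squares fit, with selectivity as IC50(off-target)/IC50(MKK4).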

The next assay has as its target JNK1 (Homo sapiens, UniProt P45983). The assay can be described thus: 33PanQinase enzyme assay, JNK1. Particulars: ratio IC50(JNK1)/IC50(MKK4). The arrangement: purchased ProQinase GmbH, Freiburg, Germany (33PanQinase Assay Service). In a few lines: as §1
A further assay concerns the target T3, MKK7 (Homo sapiens, UniProt O14733).
T3 sequence (O14733 1-419): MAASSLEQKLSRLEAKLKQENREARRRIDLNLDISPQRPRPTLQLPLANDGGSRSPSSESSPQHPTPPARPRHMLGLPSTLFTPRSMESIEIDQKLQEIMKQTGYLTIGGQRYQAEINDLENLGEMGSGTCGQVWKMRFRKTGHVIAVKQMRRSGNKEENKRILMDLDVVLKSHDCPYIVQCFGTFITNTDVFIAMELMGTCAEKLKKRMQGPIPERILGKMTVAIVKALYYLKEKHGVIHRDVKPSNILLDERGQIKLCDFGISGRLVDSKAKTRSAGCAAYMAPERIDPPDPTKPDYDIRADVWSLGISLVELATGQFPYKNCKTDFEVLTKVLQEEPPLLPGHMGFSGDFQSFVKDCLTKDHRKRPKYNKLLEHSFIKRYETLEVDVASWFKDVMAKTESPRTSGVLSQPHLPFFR
The assay can be described thus: 33PanQinase enzyme assay, MKK7. The arrangement: purchased ProQinase GmbH, Freiburg, Germany (33PanQinase Assay Service). As to conditions: ratio IC50(MKK7)/IC50(MKK4). Put shortly: as §1

The structures appear in SMILES notation. Bounds are passed on as bounds.

T2 sequence (P15056 whole entry, species assumed): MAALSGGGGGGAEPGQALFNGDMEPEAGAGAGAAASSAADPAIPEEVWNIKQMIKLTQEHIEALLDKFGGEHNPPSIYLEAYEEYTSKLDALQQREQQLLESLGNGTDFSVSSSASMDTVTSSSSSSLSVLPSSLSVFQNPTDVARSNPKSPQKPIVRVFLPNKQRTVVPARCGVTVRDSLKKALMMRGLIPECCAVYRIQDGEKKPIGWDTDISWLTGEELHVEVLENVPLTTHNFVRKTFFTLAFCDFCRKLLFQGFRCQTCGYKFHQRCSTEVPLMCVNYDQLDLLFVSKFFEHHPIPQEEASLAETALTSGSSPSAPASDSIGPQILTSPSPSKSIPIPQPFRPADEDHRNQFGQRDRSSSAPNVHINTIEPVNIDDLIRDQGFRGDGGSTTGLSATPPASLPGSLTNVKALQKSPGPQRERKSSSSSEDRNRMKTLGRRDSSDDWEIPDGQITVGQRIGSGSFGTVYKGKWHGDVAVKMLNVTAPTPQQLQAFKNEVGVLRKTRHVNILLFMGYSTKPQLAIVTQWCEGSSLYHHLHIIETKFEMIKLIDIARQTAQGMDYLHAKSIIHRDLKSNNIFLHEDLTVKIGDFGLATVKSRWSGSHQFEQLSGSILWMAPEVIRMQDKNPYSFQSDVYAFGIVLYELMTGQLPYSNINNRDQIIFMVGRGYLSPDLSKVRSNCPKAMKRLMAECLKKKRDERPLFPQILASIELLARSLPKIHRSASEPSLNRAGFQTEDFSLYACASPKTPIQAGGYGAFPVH
Chain of JNK1 (P45983 whole entry): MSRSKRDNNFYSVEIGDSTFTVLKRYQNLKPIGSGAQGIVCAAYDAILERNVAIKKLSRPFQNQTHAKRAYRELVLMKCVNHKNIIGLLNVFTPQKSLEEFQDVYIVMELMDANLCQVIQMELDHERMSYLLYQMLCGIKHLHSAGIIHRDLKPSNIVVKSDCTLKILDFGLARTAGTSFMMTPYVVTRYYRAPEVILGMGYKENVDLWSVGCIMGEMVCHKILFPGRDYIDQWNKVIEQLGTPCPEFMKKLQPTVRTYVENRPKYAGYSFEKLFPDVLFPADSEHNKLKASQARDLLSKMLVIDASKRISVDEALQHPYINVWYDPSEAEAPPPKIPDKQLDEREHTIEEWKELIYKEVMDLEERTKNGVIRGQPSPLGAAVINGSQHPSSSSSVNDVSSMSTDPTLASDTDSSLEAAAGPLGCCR

Broadly, the IC50 is the concentration at which inhibition is half-maximal. As to `CCCS(=O)(=O)Nc1ccc(F)c(C(=O)c2c[nH]c3ncc(-c4ccc(N(C)C)cc4)cc23)c1F` [Example 98, N-(3-(5-(4-(dimethylamino)phenyl)-1H-pyrrolo[2,3-b]pyridine-3-carbonyl)-2,4-difluorophenyl)propane-1-sulfonamide], at MKK4, the half-maximal inhibitory concentration (IC50) is 1000 to 10000 nM. The “Selectivity Braf, IC50(off-target)/IC50(MKK4)” value (shortened to “Selectivity Braf”) at BRaf is listed as “◯ (3 ≥ IC50(off-target)/IC50(MKK4))”. The “Selectivity JNK1, IC50(off-target)/IC50(MKK4)” value (“Selectivity JNK1” below) on JNK1 was “+ (10 ≥ IC50(off-target)/IC50(MKK4) > 3)”. Besides, the “Selectivity IVIKK7, IC50(off-target)/IC50(MKK4)” value (from here on “Selectivity IVIKK7”) on MKK7 is listed as “++ (100 ≥ IC50(off-target)/IC50(MKK4) > 10)”.

Turning to `CCCS(=O)(=O)Nc1c(F)ccc(C(=O)c2c[nH]c3ncc(-c4cnc(C(C)(C)C)nc4)cc23)c1F` [Example 196, N-(3-(5-(2-(tert-butyl)pyrimidin-5-yl)-1H-pyrrolo[2,3-b]pyridine-3-carbonyl)-2,6-difluorophenyl)propane-1-sulfonamide], the IC50 at MKK4 is under 100 nM. The “Selectivity Braf” value at BRaf is “+++ (IC50(off-target)/IC50(MKK4) > 100)”. Further, the “Selectivity JNK1” value on JNK1 is given as “+++ (IC50(off-target)/IC50(MKK4) > 100)”. For the same molecule, the “Selectivity IVIKK7” value at MKK7 is reported as “+++ (IC50(off-target)/IC50(MKK4) > 100)”.

Take `CCCS(=O)(=O)Nc1c(F)ccc(C(=O)c2c[nH]c3ncc(-c4cnc(N(C)CCO)nc4)cc23)c1F` [Example 202, N-(2,6-difluoro-3-(5-(2-((2-hydroxyethyl)(methyl)amino)pyrimidin-5-yl)-1H-pyrrolo[2,3-b]pyridine-3-carbonyl)phenyl)propane-1-sulfonamide]: the concentration for half-maximal inhibition (IC50) at MKK4 is under 100 nM. Further, the “Selectivity Braf” value at BRaf was “++ (100 ≥ IC50(off-target)/IC50(MKK4) > 10)”. Further, the “Selectivity JNK1” value at JNK1 is listed as “+++ (IC50(off-target)/IC50(MKK4) > 100)”. On MKK7, the “Selectivity IVIKK7” value was “+++ (IC50(off-target)/IC50(MKK4) > 100)”.

`CCCS(=O)(=O)Nc1c(F)ccc(C(=O)c2c[nH]c3ncc(-c4cnc(OC)nc4OC)cc23)c1F` [Example 236, N-(3-(5-(2,4-dimethoxypyrimidin-5-yl)-1H-pyrrolo[2,3-b]pyridine-3-carbonyl)-2,6-difluorophenyl)propane-1-sulfonamide]: the IC50 on MKK4 was under 100 nM. Further, on BRaf, the “Selectivity Braf” value is listed as “+++ (IC50(off-target)/IC50(MKK4) > 100)”. Also, at JNK1, the “Selectivity JNK1” value is recorded as “+++ (IC50(off-target)/IC50(MKK4) > 100)”. Also, the “Selectivity IVIKK7” value at MKK7 is “+++ (IC50(off-target)/IC50(MKK4) > 100)”.

Take `CCCS(=O)(=O)Nc1ccc(F)c(C(=O)c2c[nH]c3ncc(-c4ccc(SC)cc4)cc23)c1F` [Example 55]: the 50% inhibitory concentration (IC50) on MKK4 was in the range of 100 to 1000 nM. For the same molecule, the “Selectivity Braf” value on BRaf is listed as “◯ (3 ≥ IC50(off-target)/IC50(MKK4))”. For the same molecule, the “Selectivity JNK1” value at JNK1 is on record as “+ (10 ≥ IC50(off-target)/IC50(MKK4) > 3)”. Besides, at MKK7, the “Selectivity IVIKK7” value is given as “+++ (IC50(off-target)/IC50(MKK4) > 100)”.

In the case of `CCCS(=O)(=O)Nc1c(F)ccc(C(=O)c2c[nH]c3ncc(-c4ccccc4C(=O)O)cc23)c1F` [Example 224, 2-(3-(2,4-difluoro-3-(propylsulfonamido)benzoyl)-1H-pyrrolo[2,3-b]pyridin-5-yl)benzoic acid], on MKK4, the IC50 was 1000 to 10000 nM. Moreover, at BRaf, the “Selectivity Braf” value is “◯ (3 ≥ IC50(off-target)/IC50(MKK4))”. Also, at JNK1, the “Selectivity JNK1” value was “◯ (3 ≥ IC50(off-target)/IC50(MKK4))”. Moreover, the “Selectivity IVIKK7” value at MKK7 is “++ (100 ≥ IC50(off-target)/IC50(MKK4) > 10)”.

On to `CCCS(=O)(=O)Nc1c(F)ccc(C(=O)c2c[nH]c3ncc(-c4cnc(N5CC[C@H](O)C5)nc4)cc23)c1F` [Example 203, (S)-N-(2,6-difluoro-3-(5-(2-(3-hydroxypyrrolidin-1-yl)pyrimidin-5-yl)-1H-pyrrolo[2,3-b]pyridine-3-carbonyl)phenyl)propane-1-sulfonamide], for which the IC50 at MKK4 is under 100 nM. The “Selectivity Braf” value on BRaf is reported as “++ (100 ≥ IC50(off-target)/IC50(MKK4) > 10)”. The “Selectivity JNK1” value on JNK1 is given as “+++ (IC50(off-target)/IC50(MKK4) > 100)”. Also, the “Selectivity IVIKK7” value on MKK7 is reported as “+++ (IC50(off-target)/IC50(MKK4) > 100)”.
